Test system: rat adrenal angiotensin II receptors
Assay: displacement of radioligand [^125 I]-SIAII specifically bound to rat adrenal angiotensin II receptors
Type: binding
Details: 60 min at 25° C.
Procedure: The affinity of the products of the Examples for angiotensin II receptors is evaluated by the technique of displacing a radioligand specifically bound to rat adrenal angiotensin II receptors.
An aliquot of a rat adrenal gland homogenate incubates in the presence of a single concentration of [^125 I]-SIAII (Sar^1,Tyr^4,Ile^8 -angiotensin II), which is an angiotensin II receptor antagonist, and two concentrations of competing agents (10^-5 M, 10^-7 M) for 60 min at 25° C.
The reaction is completed by the addition of a buffer, followed by rapid filtration through glasspaper filters. The non-specific binding is determined in the presence of angiotensin II.
The results are expressed, for the concentrations tested, as the percentage displacement of the radioligand specifically bound to the adrenal angiotensin II receptors.

Row | Compound | % displacement of the labeled ligand (1E-5M competing agent, 10 µM) | % displacement of the labeled ligand (1E-7M competing agent, 0.1 µM)
1 | CCCc1nc(NCC(=O)OC)sc1Cc1ccc(NC(=O)c2ccccc2S(=O)(=O)O)cc1 [Example 22, Methyl (4-propyl-5-(4-(2-sulfobenzoylamino)benzyl)thiazol-2-yl)aminoacetate] | 89% | 5%
2 | CCCCCc1nc(N)sc1Cc1ccc(NC(=O)c2ccccc2S(=O)(=O)O)cc1 [Example 44, 2-[4-(2-Amino-4-pentylthiazol-5-ylmethyl)phenylaminocarbonyl]benzosulfonic acid] | 91% | 44%
3 | Cc1nc(C)c(Cc2ccc(NC(=O)c3ccccc3C(=O)O)cc2)s1 [Example 4, 2-[4-((2,4-Dimethylthiazol-5-yl)methyl)phenylaminocarbonyl]benzoic acid] | 58% | 0%
4 | CCCc1nc(N)sc1Cc1ccc(NC(=O)c2ccccc2S(=O)(=O)O)cc1 [Example 33, 2-[4-(2-Amino-4-propylthiazol-5-ylmethyl)phenylaminocarbonyl]benzosulfonic acid] | 85% | 27%
5 | CCOC(=O)CNc1nc(C)c(Cc2ccc(NC(=O)c3ccccc3C(=O)O)cc2)s1 [Example 7, Ethyl (4-methyl-5-(4-(2-carboxybenzoylamino)benzyl)thiazol-2-yl)aminoacetate] | 35% | 0%
6 | CCCc1nc(N)sc1Cc1ccc(NC(=O)c2c(Cl)ccc(Cl)c2C(=O)O)cc1 [Example 41, 2-[4-(2-Amino-4-propylthiazol-5-ylmethyl)phenylaminocarbonyl]-3,6-dichlorobenzoic acid] | 87% | 9%
7 | CCCCCc1nc(C)sc1Cc1ccc(NC(=O)c2ccccc2S(=O)(=O)O)cc1 [Example 40, 2-[4-(2-methyl-4-pentylthiazol-5-ylmethyl)phenylaminocarbonyl]benzosulfonic acid] | 88% | 59%
8 | CCCc1nc(SCCCC(=O)OCC)sc1Cc1ccc(NC(=O)c2ccccc2S(=O)(=O)O)cc1 [Example 15, Ethyl 4-[[4-propyl-5-(4-(2-sulfobenzoylamino)benzyl)thiazol-2-yl]mercapto]butyrate] | 79% | 0%

More lines, now with the values ahead:

Row | % displacement of the labeled ligand (1E-5M competing agent, 10 µM) | % displacement of the labeled ligand (1E-7M competing agent, 0.1 µM) | Compound
9 | 84% | 29% | CCCc1nc(CNC(=O)OCC)sc1Cc1ccc(NC(=O)c2ccccc2S(=O)(=O)O)cc1 [Example 30, 2-[4-(2-Ethoxycarbonylaminomethyl-4-propylthiazol-5-ylmethyl)phenylaminocarbonyl]benzosulfonic acid]
10 | 94% | 59% | CCCc1nc(C)sc1Cc1ccc(NC(=O)c2ccccc2S(=O)(=O)O)cc1 [Example 11, 2-[4-(2-methyl-4-propylthiazol-5-ylmethyl)phenylaminocarbonyl]benzosulfonic acid]
11 | 89% | 55% | CCCc1nc(COC)sc1Cc1ccc(NC(=O)c2ccccc2S(=O)(=O)O)cc1 [Example 19, 2-[4-(2-Methoxymethyl-4-propylthiazol-5-yl-methyl)phenylaminocarbonyl]benzosulfonic acid]
12 | 84% | 3% | CCCc1nc(NC(C)=O)sc1Cc1ccc(NC(=O)c2ccccc2S(=O)(=O)O)cc1 [Example 36, 2-[4-(2-Acetamido-4-propylthiazol-5-yl-methyl)phenylaminocarbonyl]benzosulfonic acid]
13 | 86% | 22% | CCCc1nc(CC(=O)OC)sc1Cc1ccc(NC(=O)c2ccccc2S(=O)(=O)O)cc1 [Example 26, 2-[4-(2-methoxycarbonylmethyl-4-propylthiazol-5-ylmethyl)phenylaminocarbonyl]benzosulfonic acid]

— patent US5192781A, “Thiazole derivatives which are angiotensin II receptor antagonists, their methods of preparation and pharmaceutical compositions in which they are present” (Laboratoires UPSA, priority 1991, dated 1993)
